This is an account of results in ChEMBL document CHEMBL1201862, “PubChem BioAssay data set” (2004).

SMILES strings stand for the structures.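 Values below derive from 48-hour exposures of cells grown in 96-well plates, with endpoints linearly interpolated between the two concentrations bracketing the appropriate inhibition level. The concentration for 50% growth inhibition is given as GI50.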 Active and inactive are the calls of the source. Rule as the data show it: active = GI50 up to about 1.1 µM and inactive = higher.

Some test systems named below: 786-0; BT-549; CAKI-1; DU-145; HCT-116; HL-60; HOP-62; Hs-578T; K562; MOLT-4; NCI-H226; OVCAR-3; SK-MEL-28; SK-MEL-5; SK-OV-3; SN12C; SNB-19; SW-620; TK-10; MDA-N.
Holding throughout (test): DTP human tumour cell line panel, 48 h

Regarding `Cn1ncc2c(Nc3cccc(Cl)c3)nc(Nc3cccc(Cl)c3)nc21`, the GI50 in the assay with 786-0 is 2.43 µM (inactive); in the assay with BT-549, 21.8 µM (inactive); with CAKI-1, 7.6 µM (inactive); in the assay on DU-145 it was 14.6 µM (inactive); with HCT-116, 11.4 µM (inactive); in the assay on HL-60, 7.94 µM (inactive). Moreover, the GI50 in the assay with HOP-62 was 17.3 µM (inactive); in the assay on Hs-578T, 12 µM (inactive); with K562, 1.75 µM (inactive); in the assay with MOLT-4 it was 4.68 µM (inactive); in the assay on NCI-H226 it was > 48.3 µM (inactive); in the assay on OVCAR-3, 18.5 µM (inactive). Further, the GI50 was 14.8 µM (inactive) in the assay on SK-MEL-28; > 35.6 µM (inactive) in the assay with SK-MEL-5; 20 µM (inactive) in the assay with SK-OV-3; 20.7 µM (inactive) in the assay with SN12C; 19.1 µM (inactive) in the assay on SNB-19; 11.2 µM (inactive) in the assay on SW-620. For the same compound, in the assay on TK-10, the GI50 was 11.5 µM (inactive).
Take `CCOC(=N)n1c(=O)n(C2=NCCN2)c2ccccc21`: the GI50 in the assay on 786-0, in the assay with BT-549, with CAKI-1, with DU-145, with HCT-116 and in the assay on HL-60 was > 100 µM (inactive) in each case. The GI50 with HOP-62, in the assay on K562, in the assay on MDA-N, with MOLT-4, in the assay on NCI-H226 and in the assay on OVCAR-3 was > 100 µM (inactive) throughout. Moreover, the GI50 in the assay on SK-MEL-28, in the assay on SK-OV-3, in the assay on SN12C, with SNB-19, in the assay with SW-620 and in the assay with TK-10 was > 100 µM (inactive) throughout.
As for `N#CCCOc1cccc(C2(N3CCCCC3)CCCCC2)c1`, the GI50 with 786-0, in the assay on BT-549, in the assay with CAKI-1, with DU-145, in the assay with HCT-116 and with HL-60 was > 100 µM (inactive) throughout. In addition, the GI50 with HOP-62, with Hs-578T, in the assay on K562, in the assay on MOLT-4, in the assay with NCI-H226 and with OVCAR-3 was > 100 µM (inactive) each time. In addition, the GI50 in the assay on SK-MEL-28, with SK-MEL-5, in the assay with SK-OV-3, in the assay on SN12C, with SNB-19 and in the assay on SW-620 was > 100 µM (inactive) each time. Further, the GI50 in the assay on TK-10 was > 100 µM (inactive).
Regarding `CC(ON1[C@](C)(c2ccccc2)CC[C@@]1(C)c1ccccc1)c1ccccc1` (stereo partly specified), the GI50 in the assay with 786-0 was 52.4 µM (inactive); in the assay on BT-549, 13.4 µM (inactive); in the assay on CAKI-1, 37.8 µM (inactive); with DU-145 it was 34.8 µM (inactive); in the assay with HCT-116, 25.4 µM (inactive); with HL-60 it was 23.6 µM (inactive). The GI50 is 83.4 µM (inactive) in the assay with HOP-62; 37.3 µM (inactive) in the assay with Hs-578T; 33 µM (inactive) in the assay on K562; 16.2 µM (inactive) with MOLT-4; 40.9 µM (inactive) in the assay with NCI-H226; 38.4 µM (inactive) in the assay on OVCAR-3. Further, the GI50 in the assay with SK-MEL-28 is 53.2 µM (inactive); in the assay with SK-MEL-5, 30 µM (inactive); in the assay on SK-OV-3 it was > 100 µM (inactive); in the assay on SN12C, 45.6 µM (inactive); in the assay on SNB-19, 25.5 µM (inactive); in the assay with SW-620, 37.9 µM (inactive). In the assay with TK-10, the GI50 was > 100 µM (inactive).
In the case of `COC1/C=C(C)/C=C/C(C)/C=C/C(=O)OC(/C(C)=C/C=C(\C)CNC(=O)[C@H](CO)NC=O)C(C)/C=C/C=C/C(OC)CC/C=C(C)/C=C/C1` (stereo partly specified), the GI50 was 0.0288 µM (active) in the assay with 786-0; 0.0581 µM (active) in the assay on BT-549; 0.0706 µM (active) in the assay on CAKI-1; > 0.312 µM (active) in the assay on DU-145; 0.0318 µM (active) in the assay on HCT-116; 0.0225 µM (active) with HL-60. The GI50 in the assay with HOP-62 was 0.0224 µM (active); with Hs-578T, > 0.214 µM (active); in the assay with K562, 0.0192 µM (active); in the assay with MOLT-4, 0.0206 µM (active); in the assay with OVCAR-3 it was 0.039 µM (active); in the assay with SK-MEL-28 it was > 0.283 µM (active). Besides, the GI50 in the assay with SK-MEL-5 was 0.0231 µM (active); in the assay with SK-OV-3, > 1 µM (active); in the assay with SNB-19 it was > 1 µM (active); with SW-620, 0.0469 µM (active); in the assay on TK-10, 0.356 µM (active).
As for `Oc1ccc2ccccc2c1OCc1nnc(CCCCCCCCc2nnc(COc3c(O)ccc4ccccc34)o2)o1`, the GI50 with 786-0 is 83 µM (inactive); in the assay with BT-549 it was > 100 µM (inactive); with CAKI-1 it was 67 µM (inactive); in the assay on DU-145, > 100 µM (inactive); with HCT-116, 20.7 µM (inactive); in the assay with K562 it was > 100 µM (inactive). Moreover, the GI50 was > 100 µM (inactive) in the assay on MDA-N; 92.3 µM (inactive) with MOLT-4; > 100 µM (inactive) in the assay on NCI-H226; > 100 µM (inactive) in the assay on SK-MEL-28; > 100 µM (inactive) with SK-MEL-5; > 100 µM (inactive) in the assay with SK-OV-3. Besides, the GI50 in the assay with SN12C, with SNB-19, with SW-620 and in the assay on TK-10 was > 100 µM (inactive) throughout.
In the case of `CCN1CCCc2cc3c(C(F)(F)F)cc(=O)oc3cc21`, the GI50 in the assay with 786-0 is 39.4 µM (inactive); in the assay with BT-549 it was 58.2 µM (inactive); in the assay with CAKI-1, 50.8 µM (inactive); in the assay on DU-145, > 100 µM (inactive); in the assay on HCT-116, 91.8 µM (inactive); in the assay with HL-60, 0.0258 µM (active). Besides, the GI50 in the assay on HOP-62 was > 100 µM (inactive); with K562, 63.8 µM (inactive); with MDA-N it was > 100 µM (inactive); with MOLT-4, 42.4 µM (inactive); with NCI-H226 it was 64.6 µM (inactive); in the assay on OVCAR-3, 33 µM (inactive). The GI50 with SK-MEL-28 is > 100 µM (inactive); in the assay with SK-MEL-5 it was 28.6 µM (inactive); with SK-OV-3 it was > 100 µM (inactive); with SN12C, 99.8 µM (inactive); with SNB-19, > 100 µM (inactive); in the assay on SW-620, > 100 µM (inactive). Also, the GI50 with TK-10 was > 100 µM (inactive).
As to `C/C(=N\Nc1nc2ccccc2s1)c1ncccn1`, the GI50 was 0.0336 µM (active) with 786-0; 0.346 µM (active) in the assay with BT-549; < 0.01 µM (active) with CAKI-1; 0.258 µM (active) in the assay with DU-145; < 0.0193 µM (active) with HCT-116; < 0.01 µM (active) with HL-60. For the same compound, the GI50 was 0.131 µM (active) in the assay with HOP-62; 0.59 µM (active) in the assay with Hs-578T; < 0.0501 µM (active) in the assay with K562; < 0.01 µM (active) in the assay with MOLT-4; < 0.0185 µM (active) in the assay with NCI-H226; < 0.0215 µM (active) with OVCAR-3. For the same compound, the GI50 is 0.179 µM (active) with SK-MEL-28; 0.03 µM (active) with SK-MEL-5; 0.103 µM (active) with SK-OV-3; < 0.0204 µM (active) in the assay with SN12C; 0.316 µM (active) in the assay with SNB-19; < 0.0154 µM (active) in the assay on SW-620.
Turning to `CCCC(=O)Oc1c2ccsc2c(OC(=O)CCC)c2ccsc12`, the GI50 with 786-0 is 4.55 µM (inactive); with BT-549, 1.35 µM (inactive); with CAKI-1 it was 5.55 µM (inactive); with DU-145 it was 0.857 µM (active); with HCT-116, 1.35 µM (inactive); in the assay on HL-60 it was 1.08 µM (active). Also, the GI50 in the assay on HOP-62 is 0.536 µM (active); in the assay on K562, 1.24 µM (inactive); in the assay on MDA-N, 0.371 µM (active); with MOLT-4 it was 1.96 µM (inactive); in the assay on NCI-H226 it was 4 µM (inactive); in the assay on OVCAR-3 it was 1.07 µM (active). In addition, the GI50 is 0.951 µM (active) with SK-MEL-28; 0.804 µM (active) in the assay with SK-MEL-5; 0.75 µM (active) with SK-OV-3; 1.11 µM (active) with SN12C; 2.6 µM (inactive) with SNB-19; 1.63 µM (inactive) in the assay with SW-620. In addition, the GI50 in the assay with TK-10 was 4.48 µM (inactive).
For `C=C1c2nc3ccccc3n2C=C(c2ccc(Cl)cc2)N1c1ccc(OC)cc1`, the GI50 with 786-0 is 4.39 µM (inactive); in the assay with BT-549, 2.67 µM (inactive); in the assay on CAKI-1 it was 4.58 µM (inactive); with DU-145, 15.6 µM (inactive); in the assay with HCT-116, 6.97 µM (inactive); in the assay with HL-60, 76.7 µM (inactive). The GI50 in the assay on K562 is 25.6 µM (inactive); in the assay with MDA-N, 13.2 µM (inactive); in the assay on MOLT-4, 73.1 µM (inactive); in the assay on NCI-H226 it was 5.46 µM (inactive); in the assay on OVCAR-3, 10.8 µM (inactive); with SK-MEL-28, 7.57 µM (inactive). Besides, the GI50 in the assay on SK-MEL-5 is 6.53 µM (inactive); in the assay on SK-OV-3, 10.7 µM (inactive); with SN12C it was 11.9 µM (inactive); in the assay on SNB-19 it was 3.44 µM (inactive); in the assay on SW-620, 17.7 µM (inactive); in the assay with TK-10 it was 4.82 µM (inactive).
With `CC(C)[Si]1(C(C)C)OCC2OC(n3ccc(=O)[nH]c3=O)C(O)(CO)C2O[Si](C(C)C)(C(C)C)O1` (stereo unspecified), the GI50 is 15.3 µM (inactive) in the assay with 786-0; 16.8 µM (inactive) in the assay with BT-549; 15.8 µM (inactive) in the assay on CAKI-1; 18.3 µM (inactive) with DU-145; 14.3 µM (inactive) with HCT-116; 14.4 µM (inactive) in the assay on HL-60. Besides, the GI50 was 19.4 µM (inactive) with HOP-62; 3.31 µM (inactive) in the assay with Hs-578T; 18.4 µM (inactive) with K562; 12.3 µM (inactive) in the assay on MOLT-4; 21.2 µM (inactive) with NCI-H226; 15.8 µM (inactive) with OVCAR-3. In addition, the GI50 in the assay with SK-MEL-28 is 19.3 µM (inactive); in the assay with SK-MEL-5, 15.1 µM (inactive); with SK-OV-3, 16.4 µM (inactive); in the assay with SN12C it was 15.8 µM (inactive); with SNB-19, 15.3 µM (inactive); in the assay with SW-620, 17.1 µM (inactive). For the same compound, the GI50 in the assay on TK-10 is 17.4 µM (inactive).
